Assay results as given in patent US20040142821A1, “Pesticide composition comprising malononitrile compounds” (priority 2001, published 2004).
Values belong to the compound of their own block, whether it stands above or below them.

Legend:
[1] = tested on: Diabrotica undecimpunctata; assay: Pesticidal test against Diabrotica undecimpunctata, treated filter paper (Test Example 4); type: in vivo, Diabrotica undecimpunctata (southern-corn rootworm); details: 50 ppm test liquid (Formulation Example 1), 1 ml on filter paper; 30 to 50 eggs and one germinated corn seed; 25° C.
Protocol: One germinated seed of corn and 30 to 50 eggs of Diabrotica undecimpunctata (southern-corn rootworm) was placed on the filter paper in the polyethylene cup, which was then kept covered and left in a room at 25° C. On the 6th day after, the number of surviving larvae of Diabrotica undecimpunctata was examined.

Musca domestics = assay: Pesticidal test against Musca domestics, treated filter paper with sucrose bait (Test Example 5); type: in vivo; details: 500 ppm test liquid (Formulation Example 5), 0.7 ml on filter paper, ten female adults, after 24 hours
Protocol: Ten female adults of Musca domestics (house fly) were set free in the polyethylene cup, which was then kept covered. After 24 hours, their survival was examined to determine the mortality.

German cockroach = assay: Pesticidal test against German cockroach, treated filter paper with sucrose bait (Test Example 6); type: in vivo; details: Blattella germanica, 144 h; 500 ppm test liquid (Formulation Example 5), 0.7 ml on filter paper; two male adults; after 6 days
From the text: Two male adults of German cockroach (Blattalla germanica) were set free in the polyethylene cup, which was then kept covered. After 6 days, their survival was examined to determine the mortality.

Cullex pipiens pallens = assay: whole plant or invertebrate; details: 24 h
Protocol: In 100 ml of ion-exchanged water, the test liquid had been prepared as described above, was added dropwise in an amount of 0.7 ml (the concentration of active ingredient was 3.5 ppm). Twenty final-instar larvae of Cullex pipiens pallens (common mosquito) were set free in the solution. After 1 days, their survival was examined to determine the mortality.

- melting point: 70.9 °C
SMILES: CCC(C#N)(C#N)Cc1ccc(Cl)cc1

SMILES: C=CCC(C#N)(C#N)Cc1ccc(Cl)cc1 [Compound 1, 2-allyl-2-(4-chlorobenzyl)malononitrile]
- number of surviving pests on the 6th day after [1]: 0
- mortality at 500 ppm (Musca domestics): 100%
- mortality at 500 ppm (German cockroach): 100%
- mortality at 3.5 µg/mL (Cullex pipiens pallens): 100%

SMILES: C=CCC(C#N)(C#N)C(C)(C)c1ccc(Cl)cc1 [Compound 2, 2-allyl-2-(1-(4-chlorophenyl)-1-methylethyl)malononitrile]
- number of surviving pests on the 6th day after [1]: 0
- mortality at 500 ppm (German cockroach): 100%
- mortality at 3.5 µg/mL (Cullex pipiens pallens): 100%

SMILES: C=CCC(C#N)(C#N)C(c1ccc(Cl)cc1)C(C)C (stereo not drawn) [Compound 3, 2-allyl-2-(1-(4-chlorophenyl)-2-methylpropyl)malononitrile]
- number of surviving pests on the 6th day after [1]: 0
- mortality at 500 ppm (Musca domestics): 100%
- mortality at 500 ppm (German cockroach): 100%
- mortality at 3.5 µg/mL (Cullex pipiens pallens): 100%

SMILES: C=CCCC(C#N)(C#N)Cc1ccc(Cl)cc1 [Compound 4, 2-(3-butenyl)-2-(4-chlorobenzyl)malononitrile]
- number of surviving pests on the 6th day after [1]: 0
- mortality at 500 ppm (Musca domestics): 100%
- mortality at 500 ppm (German cockroach): 100%
- mortality at 3.5 µg/mL (Cullex pipiens pallens): 100%

SMILES: C=CCC(C#N)(C#N)Cc1ccc(C(F)(F)F)cc1 [Compound 5, 2-allyl-2-(4-(trifluoromethyl)benzyl)malononitrile]
- number of surviving pests on the 6th day after [1]: 0
- mortality at 500 ppm (German cockroach): 100%
- mortality at 3.5 µg/mL (Cullex pipiens pallens): 100%

SMILES: N#CC(C#N)(Cc1ccc(Cl)cc1)C1CCCCC1 [Compound 9, 2-(4-chlorobenzyl)-2-cyclohexylmalononitrile]
- number of surviving pests on the 6th day after [1]: 0
- mortality at 500 ppm (German cockroach): 100%
- mortality at 3.5 µg/mL (Cullex pipiens pallens): 100%

SMILES: C=CCCC(C#N)(C#N)C(C)c1ccc(Cl)cc1 (stereo not drawn) [Compound 10, 2-(3-butenyl)-2-(1-(4-chlorophenyl)ethyl)malononitrile]
- number of surviving pests on the 6th day after [1]: 0
- mortality at 500 ppm (Musca domestics): 100%
- mortality at 500 ppm (German cockroach): 100%
- mortality at 3.5 µg/mL (Cullex pipiens pallens): 100%

SMILES: C=CCC(C#N)(C#N)Cc1ccc(OC(F)(F)F)cc1 [Compound 11, 2-allyl-2-(4-(trifluoromethoxy)benzyl)malononitrile]
- number of surviving pests on the 6th day after [1]: 0
- mortality at 500 ppm (Musca domestics): 100%
- mortality at 500 ppm (German cockroach): 100%
- mortality at 3.5 µg/mL (Cullex pipiens pallens): 100%

- melting point: 81.9 °C
SMILES: C=CCC(C#N)(C#N)Cc1ccc(C#N)cc1 [Compound 14, 2-allyl-2-(4-cyanobenzyl)malononitrile]

SMILES: C=CCCC(C#N)(C#N)C(C)c1ccc(OC(F)(F)F)cc1 (stereo not drawn) [Compound 16, 2-(3-butenyl)-2-(1-(4-(trifluoromethoxy)phenyl)ethyl)malononitrile]
- number of surviving pests on the 6th day after [1]: 0
- mortality at 500 ppm (German cockroach): 100%
- mortality at 3.5 µg/mL (Cullex pipiens pallens): 100%

SMILES: C=CCC(C#N)(C#N)Cc1ccc(Cl)c(Cl)c1 [Compound 23, 2-allyl-2-(3,4-dichlorobenzyl)malononitrile]
- number of surviving pests on the 6th day after [1]: 0
- mortality at 500 ppm (German cockroach): 100%
- mortality at 3.5 µg/mL (Cullex pipiens pallens): 100%

- melting point: 94.2 °C
SMILES: C=CCC(C#N)(C#N)Cc1ccc([N+](=O)[O-])cc1 [Compound 50, 2-allyl-2-(4-nitrobenzyl)malononitrile]

- melting point: 78.2 °C
SMILES: C=CCC(C#N)(C#N)Cc1c(F)c(F)c(F)c(F)c1F [Compound 62, 2-allyl-2-(2,3,4,5,6-pentafluorobenzyl)malononitrile]

SMILES: C=CCC(C#N)(C#N)C(c1cccc(Cl)c1)C(C)C (stereo not drawn) [Compound 66, 2-allyl-2-(1-(3-chlorophenyl)-2-methylpropyl)malononitrile]
- number of surviving pests on the 6th day after [1]: 0
- mortality at 500 ppm (Musca domestics): 100%
- mortality at 3.5 µg/mL (Cullex pipiens pallens): 100%

- melting point: 44.8 °C
SMILES: CC/C=C\CCC(C#N)(C#N)Cc1ccc(Cl)cc1 [Compound 73, 2-(4-chlorobenzyl)-2-((Z)-3-hexenyl)malononitrile]

SMILES: C=CCC(C#N)(C#N)C(C)c1ccc(Cl)cc1 (stereo not drawn) [Compound 74, 2-allyl-2-(1-(4-chlorophenyl)ethyl)malononitrile]
- number of surviving pests on the 6th day after [1]: 0
- mortality at 500 ppm (Musca domestics): 100%
- mortality at 500 ppm (German cockroach): 100%
- mortality at 3.5 µg/mL (Cullex pipiens pallens): 100%

- melting point: 74.5 °C
SMILES: C=CCC(C#N)(C#N)Cc1ccc(C)cc1 [Compound 77, 2-allyl-2-(4-methylbenzyl)malononitrile]
